The assay in a line: Enzyme-Linked Immunosorbent Assay: EZH2 wild type: Experimental method: avdin of a final concentration of 100 nM was used to coat 96-well plate at 10 μL/well, placed in a wet box and shaken overnight, and then 100 μL 3% BSA per well was added and blocked for 1 h at room temperature. PRC2 complex (EZH2/EED/SUZ12/RbAp48/AEBP2), H3 (21-44) me0 substrate, methyl donor SAM and compound were added into each well of the blocked 96-well plate. The total reaction system was 100 μL, placed in a wet box and allowed to react for 1 h on shaker at room temperature. The plate was washed with TBS-T [20 mM Tris-HCl (pH 7.2-7.4, room temperature), 150 mM NaCl, 0.1% (v/v) Tween-20] for 3 times, blocked with 3% BSA for 10 min, and anti-H3K27me3 antibody was added and incubated for 1 h in a wet box on shaker at room temperature. The plate was washed again with TBS-T for 3 times, and blocked with 3% BSA per well for 10 min. Horseradish peroxidase-labeled secondary antibody was added and reacted in a wet box at room temperature for 1 h, and finally, washed with TBS-T for 3 times. 2 mg/ml OPD color developing solution (1004/well) was added for coloring, and the reaction was stopped with 2M H2SO4 (50 μL/well). The plate was read by a plate reader at 490 nm and IC50 of the compound was calculated using SoftMax Pro 5.4.1 software.

Regarding `Cc1cc(C)c(CNC(=O)c2cc3cccn3c(C(C)OCc3ccnn3C)c2C)c(=O)[nH]1` (stereo unspecified), the IC50 was less than 100 nM.

In general, IC50 refers to the concentration needed to halve the response being measured.

The record behind these values is ChEMBL document CHEMBL5728379, “Pyrido five-element aromatic ring compound, preparation method therefor and use thereof” (2021).
